Results reported in patent publication US9193689B2, “3-aryl-5-substituted-isoquinolin-1-one compounds and their therapeutic use” (INSTITUTE OF CANCER RESEARCH: ROYAL CANCER HOSPITAL (THE), priority 2012, dated 2015).
Values joined by “and” are separate entries in the source; they are usually repeats but may differ in a detail not shown here. Equal entries are not always repeated.

target: TNKS1 (Homo sapiens, UniProt O95271); assay: TNKS1/PARP Biochemical Assay (TNKS1); conditions: not given

IC50	Compound
48 nM	CN1CCN(Cc2ccc(-c3cc4ccc(F)cc4c(=O)[nH]3)cc2)CC1 [REF-2, reference compound]
< 500 nM	Cc1ccc(F)c2c(=O)[nH]c(-c3cnc(C(=O)N4CCN(C)CC4)nc3)cc12 [IQ-225]
< 50 nM	Cc1cccc2c(=O)[nH]c(-c3ccc(C(C)(C)C(=O)N4CC(O)C4)cc3)cc12 [IQ-217]
< 500 nM	CN(C)CCOc1ccc(-c2cc3c(C#CCO)cccc3c(=O)[nH]2)cc1 [IQ-232]
< 500 nM	CN(C)CCOc1ccc(-c2cc3c(Cl)cccc3c(=O)[nH]2)cc1 [IQ-128]
< 50 nM	O=c1[nH]c(-c2ccc(CN3CCNCC3)cc2)cc2c(F)cccc12 [IQ-070]
< 500 nM	CN(C)C1CCN(C(=O)c2ccc(-c3cc4c(Cl)cccc4c(=O)[nH]3)cc2)CC1 [IQ-103]
< 500 nM	O=c1[nH]c(-c2ccc(OCCN3CCCC3)cc2)cc2c(Cl)cccc12 [IQ-135]
< 50 nM	CN(C)Cc1ccc(-c2cc3c(Br)cccc3c(=O)[nH]2)cc1 [IQ-033]
< 50 nM	CN1CCC(CN(C)S(=O)(=O)c2ccc(-c3cc4c(Cl)cccc4c(=O)[nH]3)cc2)CC1 [IQ-112]
< 500 nM	CN1CCN(c2ccc(-c3cc4c(Cl)cccc4c(=O)[nH]3)c[n+]2[O-])CC1 [IQ-002-2, 5-Chloro-3-[6-(4-methyl-piperazin-1-yl)-1-oxy-pyridin-3-yl]-2H-isoquinolin-1-one]
< 50 nM	Cc1cccc2c(=O)[nH]c(-c3ccc(CN4CCN(C5CC5)CC4)cc3)cc12 [IQ-050]
< 500 nM	CC(C)(C)OC(=O)N1CCN(Cc2ccc(-c3cc4c(C5CC5)cccc4c(=O)[nH]3)cc2)CC1 [IQ-047]
< 500 nM	Cc1cccc2c(=O)[nH]c(-c3ccc(CN4CCN(CC5CC5)CC4)nc3)cc12 [IQ-161]
< 20 nM	Cc1cc(F)cc2c(=O)[nH]c(-c3ccc(C(=O)N(C)C4CCN(C)CC4)cc3)cc12 [IQ-195]
< 20 nM	Cc1cc(F)cc2c(=O)[nH]c(-c3ccc(C(=O)N(C)C4CCNCC4)cc3)cc12 [IQ-213]
< 20 nM	Cc1ccc(F)c2c(=O)[nH]c(-c3ccc(C(=O)N4CCN(C)CC4)cc3)cc12 [IQ-189]
< 20 nM	Cc1cccc2c(=O)[nH]c(-c3ccc(CN4CC(O)C4)cc3)cc12 [IQ-167]
< 20 nM	Cc1cccc2c(=O)[nH]c(-c3ccc(C(=O)N(C)CC4CCN(C)C4)cc3)cc12 (stereo not drawn) [IQ-204]
< 500 nM	Cc1cccc2c(=O)[nH]c(-c3ccc(C(=O)N4CC(N(C)C)C4)cc3)cc12 [IQ-202]
< 500 nM	Cc1cccc2c(=O)[nH]c(-c3ccc(Cn4cccc4)cc3)cc12 [IQ-184]
< 20 nM	Cc1cccc2c(=O)[nH]c(-c3ccc(C(=O)N(C)C4CCN(C)CC4)nc3)cc12 [IQ-099]
< 500 nM	Cc1cccc2c(=O)[nH]c(-c3ccc(CN4CCN(C(=O)OC(C)(C)C)CC4)nc3)cc12 [IQ-071]
< 20 nM	Cc1cccc2c(=O)[nH]c(-c3ccc(CN4CCCNCC4)cc3)cc12 [IQ-062]
< 500 nM	CC(C)(C)OC(=O)N1CCN(c2ccc(-c3cc4c(Cl)cccc4c(=O)[nH]3)cc2)CC1 [IQ-010]
< 50 nM	O=c1[nH]c(-c2ccc(N3CCN(CCO)CC3)nc2)cc2c(Cl)cccc12 [IQ-012]

IC50	Compound
< 50 nM	O=C(c1ccc(-c2cc3c(F)cc(F)cc3c(=O)[nH]2)cc1)N1CCN(CCO)CC1 [IQ-228, 5,7-Difluoro-3-{4-[4-(2-hydroxy-ethyl)-piperazine-1-carbonyl]-phenyl}-2H-isoquinolin-1-one]
< 50 nM	Cc1cccc2c(=O)[nH]c(-c3ccc(CN4CCNC(C)C4)cc3)cc12 (stereo not drawn) [IQ-084-3]
< 500 nM	CC(C)(C)OC(=O)N1CCN(Cc2ccc(-c3cc4c(Cl)cccc4c(=O)[nH]3)cc2)CC1 [IQ-044]
< 50 nM	Cc1cccc2c(=O)[nH]c(-c3ccc(CN4CCCN(C)CC4)cc3)cc12 [IQ-065]
< 20 nM	Cc1cccc2c(=O)[nH]c(-c3ccc(S(=O)(=O)N4CCNCC4)cc3)cc12 [IQ-123]
< 500 nM	CN(C)CCOc1ccc(-c2cc3c(C#CCCO)cccc3c(=O)[nH]2)cc1 [IQ-236, 3-[4-(2-Dimethylaminoethoxy)phenyl]-5-(4-hydroxybut-1-ynyl)-2H-isoquinolin-1-one]
< 20 nM	Cc1cc(F)cc2c(=O)[nH]c(-c3ccc(C(=O)N(C)CC4(C)CCN(C)C4)cc3)cc12 (stereo not drawn) [IQ-210]
< 20 nM	Cc1cccc2c(=O)[nH]c(-c3cc(F)c(C(=O)N4CC(O)C4)c(F)c3)cc12 [IQ-194]
< 20 nM	CNCc1ccc(-c2cc3c(C)cccc3c(=O)[nH]2)cc1 [IQ-029]
< 50 nM	CC(=O)N1CCN(c2ccc(-c3cc4c(Cl)cccc4c(=O)[nH]3)cc2)CC1 [IQ-015]
< 500 nM and < 50 nM and < 20 nM and 12 nM	Cc1cccc2c(=O)[nH]c(-c3ccc(N4CCNCC4)cc3)cc12 [IQ-016]
< 50 nM	Cc1cccc2c(=O)[nH]c(-c3ccc(S(=O)(=O)N(C)CC4CCN(C)CC4)cc3)cc12 [IQ-111]
< 20 nM	CNC1CN(Cc2ccc(-c3cc4c(C)cc(F)cc4c(=O)[nH]3)cc2)C1 [IQ-178]
< 50 nM	Cc1cccc2c(=O)[nH]c(-c3ccc(C(=O)N(C)C4CCN(C(C)C)CC4)cc3)cc12 [IQ-206]
< 50 nM	Cc1cccc2c(=O)[nH]c(-c3ccc(S(=O)(=O)N(C)C)cc3)cc12 [IQ-108]
< 50 nM	Cc1cccc2c(=O)[nH]c(-c3ccc(Cn4cncn4)cc3)cc12 [IQ-171]
< 50 nM	O=c1[nH]c(-c2ccc(CN3CCNCC3)cc2)cc2c(Cl)cccc12 [IQ-083]
< 50 nM	Cc1cccc2c(=O)[nH]c(-c3ccc(CN4CCN5CCCC5C4)cc3)cc12 (stereo not drawn) [IQ-087]
< 500 nM	Cc1cccc2c(=O)[nH]c(-c3ccc(CN4CCN(C(=O)OC(C)(C)C)C(C)C4)cc3)cc12 (stereo not drawn) [IQ-143]
< 20 nM	Cc1cc(F)cc2c(=O)[nH]c(-c3ccc(C(=O)N(C)C4CCN(C)C4)cc3)cc12 (stereo not drawn) [IQ-197]
< 20 nM	Cc1cccc2c(=O)[nH]c(-c3ccc(C(=O)N4CC(O)C4)cc3)cc12 [IQ-188]
< 500 nM	Cc1cccc2c(=O)[nH]c(-c3cnc(N4CCN(C(=O)OC(C)(C)C)CC4)c(F)c3)cc12 [IQ-020]
< 500 nM	CN1CCN(S(=O)(=O)c2ccc(-c3cc4c(Cl)cccc4c(=O)[nH]3)cc2)CC1 [IQ-122]
< 50 nM	Cc1cccc2c(=O)[nH]c(-c3ccc(CN4C[C@H]5CNC[C@H]5C4)cc3)cc12 [IQ-090]
< 20 nM	Cc1cccc2c(=O)[nH]c(-c3ccc(NC(CO)CO)nc3)cc12 [IQ-219]

Compound	IC50
O=c1[nH]c(-c2cnc(N3CCNCC3)c(F)c2)cc2c(Cl)cccc12 [IQ-024]	< 500 nM
Cc1cccc2c(=O)[nH]c(-c3ccc(CC(=O)N4CCN(C)CC4)cc3)cc12 [IQ-175]	< 20 nM

test system: Wnt activity in DLD1-Wnt-Luc cells; assay: Wnt-Luciferase Reporter Assay; conditions: read-out: Wnt IC50

IC50 [nM]	Compound
1000	CN1CCN(Cc2ccc(-c3cc4ccc(F)cc4c(=O)[nH]3)cc2)CC1 [REF-2, reference compound]
> 10000	CN(C)Cc1ccc(-c2cc3ccccc3c(=O)[nH]2)cc1 [REF-4, reference compound]

same assay, conditions: read-out: Wnt IC50, DLD1-Wnt-Luc cells

IC50 [nM]	Compound
< 5000	Cc1ccc(F)c2c(=O)[nH]c(-c3cnc(C(=O)N4CCN(C)CC4)nc3)cc12 [IQ-225]
< 5000	Cc1cccc2c(=O)[nH]c(-c3ccc(C(C)(C)C(=O)N4CC(O)C4)cc3)cc12 [IQ-217]
< 5000	CN(C)CCOc1ccc(-c2cc3c(C#CCO)cccc3c(=O)[nH]2)cc1 [IQ-232]
< 5000	CN(C)CCOc1ccc(-c2cc3c(Cl)cccc3c(=O)[nH]2)cc1 [IQ-128]
< 5000	O=c1[nH]c(-c2ccc(CN3CCNCC3)cc2)cc2c(F)cccc12 [IQ-070]
< 5000	CN(C)C1CCN(C(=O)c2ccc(-c3cc4c(Cl)cccc4c(=O)[nH]3)cc2)CC1 [IQ-103]
< 5000	O=c1[nH]c(-c2ccc(OCCN3CCCC3)cc2)cc2c(Cl)cccc12 [IQ-135]
< 5000	CN(C)Cc1ccc(-c2cc3c(F)cccc3c(=O)[nH]2)cc1 [IQ-032]
< 5000	CN(C)Cc1ccc(-c2cc3c(Br)cccc3c(=O)[nH]2)cc1 [IQ-033]
< 5000	CCc1cccc2c(=O)[nH]c(-c3ccc(CN4CCN(C(=O)OC(C)(C)C)CC4)cc3)cc12 [IQ-151, 4-[4-(5-Ethyl-1-oxo-1,2-dihydro-isoquinolin-3-yl)-benzyl]-piperazine-1-carboxylic acid tert-butyl ester]

Compound	IC50 [nM]
O=c1[nH]c(-c2cnc(N3CCNCC3)c(F)c2)cc2c(Cl)cccc12 [IQ-024]	< 5000
